Laboratory results: article PMC4585962, “A peptide factor secreted by Staphylococcus pseudintermedius exhibits properties of both bacteriocins and virulence factors” (Scientific Reports, 2015)
No end group written: not given here. *: point of attachment. For = O=C*

Tests used:
[1] = system: HeLa cells; test: Cytotoxicity, LDH and MTT assays; format: cell-based, human; conditions: 4 h exposure, said to be similar to the other cell types (Fig. S7)
Method: Human skin fibroblasts (HSF, ATCC CRL-2522), adipose-derived stem cells (ASCs, ATCC PCS-500-011), and HeLa human epithelioid cervix carcinoma cells (ATCC CCL-2) were maintained in Dulbecco’s modified Eagle’s medium (DMEM, Sigma) containing 1 g/l glucose, 10% (v/v) foetal bovine serum (FBS), 1 U/ml penicillin, 1 μg/ml streptomycin, and 2.5 μg/ml amphotericin B. Murine P388/D1 monocyte/macrophage cells (ATCC CCL-46) and murine RAW264.7 macrophage-like cells (ATCC TIB-71) were cultured in DMEM containing 4.5 g/l glucose, 5% (v/v) FBS, and antibiotics, as indicated above. Keratinocytes from human skin were grown in KBM Gold Medium (Lonza). All cells were incubated in standard conditions (5% CO2, 37 °C, >95% humidity). […] After a 30-min incubation (RT, in the dark), the reaction was stopped, and the absorbance was measured with a microplate reader (PowerWave X, BioTek Instruments) at 490 nm, followed by subtraction of the absorbance reference value at 690 nm. […] The absorbance of solubilized purple formazan was measured at 540 nm, followed by subtraction of the absorbance reference value at 690 nm. […] The amount of released haemoglobin was spectrophotometrically determined at 540 nm and compared with a positive control (erythrocytes lysed with 1% sodium dodecyl sulphate).

[2] = system: B. subtilis 1A751 (pALCP2G); test: GFP release assay; format: cell-based, Bacillus subtilis; conditions: 2 × 10^6 CFU in PBS, 1 h 37 °C, 0.23 to 15 μM BacSp222, fluorescence of supernatant 480/510 nm
Method: (§1) The bacteria transformed with GFP-encoding plasmids (pCN68[59] for S. aureus RN4220; pALCP2G[60] for B. subtilis 1A751[61] and E. coli DH5α) were grown overnight in TSB supplemented with appropriate antibiotics, washed twice and finally suspended in PBS. Fifty microliters of the suspensions containing 2 × 10^6 CFU of bacteria were then incubated for 1 h at 37 °C with serial dilutions of BacSp222 at concentrations ranging from 0.23 to 15 μM. Then, the bacteria were spun down, and the fluorescence in the supernatant was determined (Synergy H1 microplate reader, BioTek, 480/510 nm excitation/emission wavelengths). As the controls for 100% GFP release, S. aureus and B. subtilis were lysed using lysostaphin and chicken egg white lysozyme (Sigma), respectively, whereas the E. coli cells were disrupted by ultrasonication.

[3] = system: B. subtilis; test: Bactericidal test, plating on TSA after incubation; format: cell-based, Bacillus subtilis; conditions: 1 × 10^4 CFU incubated with 1 μM bacteriocin for 30 minutes (data not shown)
[4] = system: E. coli DH5α (pALCP2G); test: GFP release assay; format: cell-based, Escherichia coli; conditions: 2 × 10^6 CFU in PBS, 1 h 37 °C, 0.23 to 15 μM BacSp222, fluorescence of supernatant 480/510 nm
Method: as §1

[5] = system: S. aureus; test: Bactericidal test, plating on TSA after incubation; format: cell-based, Staphylococcus aureus; conditions: 1 × 10^4 CFU incubated with 1 μM bacteriocin for 30 minutes (data not shown)
[6] = Conformational stability by CD, ellipticity at 220 nm against temperature; format: physicochemical; conditions: 125 μg/ml in PBS, 20–90 °C at 1 °C/min
Method: The circular dichroism (CD) spectra of BacSp222 (125 μg/ml in PBS) were recorded using a J-715 spectropolarimeter (Jasco). The spectra were recorded at room temperature in the range 190–240 nm and were averaged over three independent passes. The amount of secondary structures was estimated by fitting the measured spectra to the reference spectra of natural native proteins (Prot, Jasco) or synthetic polypeptides (Yang, Jasco). To evaluate the conformational stability of the BacSp222 molecule at different temperatures, the ellipticity of the polarized light was recorded at 220 nm over the temperature range 20–90 °C at 1 °C/min increments.

Substance: For-MAGLLRFLLSKGRALYNWAKSHVGKVWEWLKSGATYEQIKEWIENALGWR [BacSp222]
- cytotoxic effect [1]: sigmoidal, dose-dependent cytotoxic effect
- leakage of GFP from recombinant cells [2]: dose-dependent leakage of GFP was observed
- colonies after plating on TSA [3]: complete absence of the colonies
- leakage of GFP from recombinant cells [4]: not
- colonies after plating on TSA [5]: complete absence of the colonies
- ellipticity at 220 nm at elevated temperatures [6]: lack of changes in ellipticity at 220 nm, up to 90 °C
